Source: ChEMBL document CHEMBL1150721, “Hepatoprotective activity of polyphenolic compounds from Cynara scolymus against CCl4 toxicity in isolated rat hepatocytes” (1987)

Assays:
[1] = Effect on glutamate oxaloacetic transaminase activity at 1 mg/ml
[2] = system: Hepatocyte; experiment: Hepatoprotective activity against carbon tetrachloride-induced hepatotoxicity in fasted Sprague-Dawley rat hepatocytes assessed as serum glutamic oxaloacetic transaminase release at 1 mg/ml administered before 10 mins of carbon tetrachloride challenge measured after 30 mins; assay type: functional
[3] = system: Hepatocyte; experiment: Hepatoprotective activity against carbon tetrachloride-induced hepatotoxicity in fasted Sprague-Dawley rat hepatocytes assessed as serum glutamic pyruvate transaminase release at 3 mg/ml administered before 10 mins of carbon tetrachloride challenge measured after 30 mins; assay type: functional
[4] = system: Hepatocyte; experiment: Hepatoprotective activity against carbon tetrachloride-induced hepatotoxicity in fasted Sprague-Dawley rat hepatocytes assessed as serum glutamate pyruvate transaminase release at 1 mg/ml administered before 10 mins of carbon tetrachloride challenge measured after 30 mins; assay type: functional
[5] = system: Hepatocyte; experiment: Hepatoprotective activity against carbon tetrachloride-induced hepatotoxicity in fasted Sprague-Dawley rat hepatocytes assessed as serum glutamic oxaloacetic transaminase release at 0.1 mg/ml administered before 10 mins of carbon tetrachloride challenge measured after 30 mins; assay type: functional
[6] = system: Hepatocyte; experiment: Hepatoprotective activity against carbon tetrachloride-induced hepatotoxicity in fasted Sprague-Dawley rat hepatocytes assessed as serum glutamic pyruvate transaminase release at 0.1 mg/ml administered before 10 mins of carbon tetrachloride challenge measured after 30 mins; assay type: functional
[7] = system: Hepatocyte; experiment: Hepatoprotective activity against carbon tetrachloride-induced hepatotoxicity in fasted Sprague-Dawley rat hepatocytes assessed as serum glutamic oxaloacetic transaminase release at 3 mg/ml administered before 10 mins of carbon tetrachloride challenge measured after 30 mins; assay type: functional
[8] = system: Hepatocyte; experiment: Hepatoprotective activity against carbon tetrachloride-induced hepatotoxicity in fasted Sprague-Dawley rat hepatocytes assessed as serum glutamic oxaloacetic transaminase release at 0.01 mg/ml administered before 10 mins of carbon tetrachloride challenge measured after 30 mins; assay type: functional
[9] = system: Hepatocyte; experiment: Hepatoprotective activity against carbon tetrachloride-induced hepatotoxicity in fasted Sprague-Dawley rat hepatocytes assessed as serum glutamic pyruvate transaminase release at 0.01 mg/ml administered before 10 mins of carbon tetrachloride challenge measured after 30 mins; assay type: functional
[10] = target: T1, Alanine aminotransferase 1 (Homo sapiens) (UniProt P24298); experiment: Effect on glutamic pyruvate transaminase activity at 1 mg/ml
T1 sequence (whole entry): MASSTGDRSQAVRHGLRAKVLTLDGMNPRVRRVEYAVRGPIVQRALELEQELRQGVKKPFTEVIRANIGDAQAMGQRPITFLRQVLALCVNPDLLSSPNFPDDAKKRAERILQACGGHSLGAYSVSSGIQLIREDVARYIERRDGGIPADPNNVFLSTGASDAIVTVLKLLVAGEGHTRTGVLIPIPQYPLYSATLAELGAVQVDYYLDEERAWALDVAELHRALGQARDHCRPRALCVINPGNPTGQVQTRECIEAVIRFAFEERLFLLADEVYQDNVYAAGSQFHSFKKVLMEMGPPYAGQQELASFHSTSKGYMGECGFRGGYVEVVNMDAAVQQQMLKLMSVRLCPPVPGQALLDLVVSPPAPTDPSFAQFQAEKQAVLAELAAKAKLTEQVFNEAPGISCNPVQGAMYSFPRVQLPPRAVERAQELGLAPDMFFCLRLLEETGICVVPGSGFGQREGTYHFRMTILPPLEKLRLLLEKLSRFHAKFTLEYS

[11] = target: T1, Alanine aminotransferase 1 (Homo sapiens); experiment: Effect on glutamic pyruvate transaminase activity at 0.1 mg/ml
[12] = Effect on glutamate oxaloacetic transaminase activity at 0.1 mg/ml
[13] = Effect on glutamate oxaloacetic transaminase activity at 3 mg/ml
[14] = target: T1, Alanine aminotransferase 1 (Homo sapiens); experiment: Effect on glutamic pyruvate transaminase activity at 3 mg/ml

| Activity [1] [U/L] | Activity [10] [U/L] | Activity [11] [U/L] | Activity [12] [U/L] | Activity [13] [U/L] | Activity [14] [U/L] | SMILES | Activity [2] [%] | Activity [3] [%] | Activity [4] [%] | Activity [5] [%] | Activity [6] [%] | Activity [7] [%] | Activity [8] [%] | Activity [9] [%] |
| --- | --- | --- | --- | --- | --- | --- | --- | --- | --- | --- | --- | --- | --- | --- |
| – | – | 103 | 127 | – | – | Oc1cc(O)c2c(c1)O[C@H](c1ccc(O)c(O)c1)[C@@H](O)C2 [CIANIDANOL] | 21 | 20.1 | 17.3 | 18.3 | 14.3 | 22.4 | 16.8 | 13.5 |
| 126 | 103 | – | – | 123 | 110 | O=C(/C=C/c1ccc(O)c(O)c1)O[C@@H]1C[C@@](OC(=O)/C=C/c2ccc(O)c(O)c2)(C(=O)O)C[C@@H](O)[C@@H]1O [CYNARIN] | 17.6 | 13.3 | 13.9 | 17.9 | 16.8 | 16.5 | 17.6 | 16.3 |
| 139 | 111 | – | – | – | – | O=c1cc(-c2ccc(O)c(O)c2)oc2cc(O[C@@H]3O[C@H](CO)[C@@H](O)[C@H](O)[C@H]3O)cc(O)c12 [GALUTEOLIN] | 21.1 | 20.9 | 15.9 | 20.4 | 14.9 | 22.8 | 21.9 | 15.9 |

Continued, compound first:

| SMILES | Activity [1] [U/L] | Activity [10] [U/L] | Activity [11] [U/L] | Activity [12] [U/L] | Activity [13] [U/L] | Activity [14] [U/L] | Activity [2] [%] | Activity [3] [%] | Activity [4] [%] | Activity [5] [%] | Activity [6] [%] | Activity [7] [%] | Activity [8] [%] | Activity [9] [%] |
| --- | --- | --- | --- | --- | --- | --- | --- | --- | --- | --- | --- | --- | --- | --- |
| O=C(O)/C=C/c1ccc(O)c(O)c1 [CAFFEIC ACID] | 123 | 97 | – | – | – | – | 18.6 | 16.7 | 13.4 | 19.9 | 17.5 | 22.1 | 21 | 19 |
| O=C(/C=C/c1ccc(O)c(O)c1)O[C@@H]1C[C@](O)(C(=O)O)C[C@@H](O)[C@H]1O [CHLOROGENIC ACID] | – | – | – | – | – | – | 20.6 | 15.9 | 17.7 | 19.4 | 15.3 | 20.6 | 19.5 | 16.7 |
| O=C(O)[C@]1(O)C[C@@H](O)[C@@H](O)[C@H](O)C1 [QUINIC ACID] | – | – | – | – | – | – | 21.2 | 17 | 17.4 | 21.9 | 18.1 | 21.2 | 18.4 | 15.5 |
